Article PMC6445195, “Synthesis and biological evaluation of aminomethyl and alkoxymethyl derivatives as carbonic anhydrase, acetylcholinesterase and butyrylcholinesterase inhibitors” (Journal of Enzyme Inhibition and Medicinal Chemistry, 2017)
Several values for one entry are separate records, joined by “and”; a condition that tells them apart may be missing. Equal values may be shown once. Read-outs that look alike come from different tables or passages of the source.

Assays:
Assay in all cases: biochemical
Format in all cases: biochemical
hCA II = target: T1, hCA II (Homo sapiens, UniProt P00918)
T1 construct: from tissue; host or cells: fresh human erythrocytes
Experimental: (§1) CA activity was determined using the previously described spectrophotometric procedure of Verpoorte et al. as explained previously.[21] ^, [57] ^, [58] […] The quantity of protein was measured according to the previously described by Bradford method.[61–64] and bovine serum albumin was used as the standard.[65] ^, [66] After the purification method of the CA isoforms, samples were subjected to SDS polyacrylamide gel electrophoresis (SDS-PAGE).[67–69] […] The IC50 values were calculated from activity (%) against compounds inhibition.[72–74] Three various concentrations were used to calculate Ki values.[75–77]

hCA I = target: T2, hCA I (Homo sapiens, UniProt P00915)
T2 construct: from tissue; host or cells: fresh human erythrocytes
Experimental: as §1

BChE = BChE (Homo sapiens, UniProt P06276)
Experimental: (§2) Acetylthiocholine iodide (AChI) and butyrylthiocholine iodide (BChI) were used as substrates for the reaction. 5,5′-Dithio-bis(2-nitro-benzoic)acid (DTNB) was used for the measurement of the AChE/BChE activities. Briefly, 1.0 ml of Tris/HCl buffer (1.0 M, pH 8.0), and 10 µL of sample solution were dissolved in deionized water at different concentrations and 50 µL AChE/BChE solution were mixed and incubated for 10 min at 25 °C. Next 50 µL of DTNB (0.5 mM) was added. The reaction was then initiated by the addition of 50 µL of AChI or BChI.

AChE = AChE (Homo sapiens, UniProt P22303); settings: for AChE/BChE (proportion of AChE to BChE, selectivity): ratio of Ki AChE to Ki BChE
Experimental: as §2

[1] = purified from human erythrocytes, PNA substrate, 22 °C, read-out: IC50 hCA II
[2] = three concentrations used, read-out: Ki hCA II
[3] = purified from human erythrocytes, PNA substrate, 22 °C, read-out: IC50 hCA I
[4] = three concentrations used, read-out: Ki hCA I
[5] = Ellman, Tris/HCl pH 8.0, 25 °C, read-out: IC50 BChE
[6] = Ellman, Tris/HCl pH 8.0, 25 °C, read-out: IC50 AChE

AChE, sequence (P22303 32-614): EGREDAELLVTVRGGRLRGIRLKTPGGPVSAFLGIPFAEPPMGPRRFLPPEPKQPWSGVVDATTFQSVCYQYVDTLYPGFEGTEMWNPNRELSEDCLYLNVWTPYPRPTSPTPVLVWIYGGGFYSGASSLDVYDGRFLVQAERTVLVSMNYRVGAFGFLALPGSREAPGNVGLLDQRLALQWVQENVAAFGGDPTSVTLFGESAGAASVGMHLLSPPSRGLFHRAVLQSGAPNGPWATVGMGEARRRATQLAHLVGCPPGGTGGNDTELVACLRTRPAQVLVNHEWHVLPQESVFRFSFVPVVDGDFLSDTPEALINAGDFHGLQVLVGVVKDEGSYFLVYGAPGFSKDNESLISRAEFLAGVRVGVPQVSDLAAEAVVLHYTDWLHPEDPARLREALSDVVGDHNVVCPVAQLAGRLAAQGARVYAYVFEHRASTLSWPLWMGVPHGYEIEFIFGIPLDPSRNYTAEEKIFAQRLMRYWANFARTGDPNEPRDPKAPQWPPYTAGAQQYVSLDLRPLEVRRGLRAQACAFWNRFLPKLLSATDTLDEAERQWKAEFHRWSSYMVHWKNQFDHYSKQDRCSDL
T2 sequence (P00915 whole entry): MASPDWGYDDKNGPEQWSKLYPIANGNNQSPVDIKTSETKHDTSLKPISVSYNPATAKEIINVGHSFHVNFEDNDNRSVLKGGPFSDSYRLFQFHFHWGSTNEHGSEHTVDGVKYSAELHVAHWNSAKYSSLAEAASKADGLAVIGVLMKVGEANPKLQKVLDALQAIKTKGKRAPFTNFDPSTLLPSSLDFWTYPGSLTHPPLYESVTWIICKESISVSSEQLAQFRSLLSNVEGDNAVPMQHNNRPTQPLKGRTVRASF
BChE, sequence (P06276 29-602): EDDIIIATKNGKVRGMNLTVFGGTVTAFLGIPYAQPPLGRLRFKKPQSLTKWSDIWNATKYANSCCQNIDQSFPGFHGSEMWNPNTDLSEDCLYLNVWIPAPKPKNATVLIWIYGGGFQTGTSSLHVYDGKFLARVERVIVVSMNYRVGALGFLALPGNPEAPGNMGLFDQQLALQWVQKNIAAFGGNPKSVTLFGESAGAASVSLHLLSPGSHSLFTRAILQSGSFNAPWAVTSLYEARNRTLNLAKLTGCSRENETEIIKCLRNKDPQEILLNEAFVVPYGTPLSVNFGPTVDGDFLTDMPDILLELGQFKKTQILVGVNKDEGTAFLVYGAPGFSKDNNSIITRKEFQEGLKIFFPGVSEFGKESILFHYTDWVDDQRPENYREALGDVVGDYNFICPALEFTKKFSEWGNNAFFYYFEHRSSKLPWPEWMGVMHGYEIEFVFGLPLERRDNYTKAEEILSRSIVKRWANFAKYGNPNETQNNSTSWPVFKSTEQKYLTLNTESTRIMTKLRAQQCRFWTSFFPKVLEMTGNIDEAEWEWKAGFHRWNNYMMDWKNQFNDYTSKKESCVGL

| Compound | IC50 (hCA II; [1]) [nM] | Ki (hCA II; [2]) [nM] | IC50 (hCA I; [3]) [nM] | Ki (hCA I; [4]) [nM] | IC50 (BChE; [5]) [nM] | Ki (BChE; read-out: Ki BChE) [nM] | IC50 (AChE; [6]) [nM] | AChE/BChE (proportion of AChE to BChE, selectivity) (AChE) | Ki (AChE; read-out: Ki AChE) [nM] | IC50 (BChE) [nM] | Ki (BChE) [nM] | fold of inhibitory activity against AChE/BChE than that of TAC (AChE; AChE/BChE selectivity relative to TAC) [fold] | IC50 (hCA II) [nM] | Ki (hCA II) [nM] | IC50 (hCA I) [nM] | Ki (hCA I) [nM] | IC50 (AChE) [nM] | Ki (AChE) [nM] |
| --- | --- | --- | --- | --- | --- | --- | --- | --- | --- | --- | --- | --- | --- | --- | --- | --- | --- | --- |
| S=c1oc2ccccc2n1CN1CCOC1 [Compound 9, N-oxazolidinomethylbenzoxazoline-2-thione] | 121 | 135 ± 33 | 103 | 76 ± 20 | 84 | 80 ± 9 | 62 | 0.975 | 78 ± 36 | – | – | – | – | – | – | – | – | – |
| CC(C)OCn1c(=S)oc2ccccc21 [Compound 13, N-isopropoxymethylbenzoxazoline-2-thione] | 122 | 94 ± 37 | 105 | 90 ± 23 | – | – | 63 | 0.971 | 34 ± 5 | 83 | 35 ± 4 | – | – | – | – | – | – | – |
| S=c1oc2ccccc2n1CN1CCOCC1 [Compound 8, N-morfolinomethylbenzoxazoline-2-thion] | 119 | 121 ± 40 | 94 | 58 ± 15 | 48 | 23 ± 3 | 38 | 1.391 | 32 ± 6 | – | – | – | – | – | – | – | – | – |
| CCN(CC)Cn1c(=S)oc2ccccc21 [Compound 6, N-diethylaminomethylbenzoxazoline-2-thione] | 118 | 115 ± 28 | 102 | 123 ± 48 | – | – | 44 | 1.500 | 45 ± 11 | 80 | 30 ± 3 | – | – | – | – | – | – | – |
| CC(C)OCNc1nccs1 [Compound 16, 2-isopropoxymethylaminothiazole] | 167 | 162 ± 29 | 156 | 132 ± 30 | – | – | 76 | 0.763 | 42 ± 4 | 127 | 55 ± 12 | – | – | – | – | – | – | – |
| COCNc1nccs1 [Compound 17, 2-(methoxy)methylaminothiazole] | 187 | 215 ± 40 | 142 | 157 ± 38 | – | – | 80 | 1.285 | 54 ± 10 | 144 | 42 ± 20 | – | – | – | – | – | – | – |
| S=c1sc2ccccc2n1CN1CCOCC1 [Compound 1, N-oxazinomethylbenzothiazoline-2-thione] | 104 | 81 ± 19 | 79 | 108 ± 35 | 88 | 32 ± 7 | 51 | 0.812 | 26 ± 5 | – | – | – | – | – | – | – | – | – |
| COCCOCNc1nccs1 [Compound 15, 2-(methoxyethoxy) methylaminothiazole] | 158 | 193 ± 79 | 128 | 118 ± 27 | 109 | 45 ± 14 | 43 | 0.555 | 25 ± 3 | – | – | – | – | – | – | – | – | – |
| COCCOCn1c(=S)oc2ccccc21 [Compound 14, N-(methoxyethoxy)methyl-benzoxazoline-2-thione] | 128 | 142 ± 56 | 112 | 119 ± 53 | – | – | 38 | 0.388 and 0.383 | 23 ± 4 | 68 | 60 ± 13 | 2.22 | – | – | – | – | – | – |
| CCN(CC)Cn1c(=S)sc2ccccc21 [Compound 5, N-diethylaminomethylbenzothiazoline-2-thione] | – | – | – | – | – | – | – | 0.666 | – | 83 | 51 ± 9 | – | 98 | 100 ± 24 | 82 | 70 ± 15 | 52 | 34 ± 9 |
| S=c1sc2ccccc2n1CN1CCCCC1 [Compound 4, N-Piperidinomethylbenzothiazoline-2-thione] | 99 | 105 ± 25 | 86 | 86 ± 40 | – | – | 36 | 0.439 | 18 ± 2 | 82 | 41 ± 13 | – | – | – | – | – | – | – |
